The source made the active and inactive calls. The rule behind the calls is not given here.
What was measured:
BMDC [1] = experiment: Anti-inflammatory activity against R848-stimulated mouse BMDC cells assessed as upregulation of IL-10 production at 5 uM treated for 24 hrs followed by R848 stimulation for 12 hrs by ELISA method (reference value: 100 %); format: functional; details: time 36 hrs
[2] = molecular target: Cyclin-dependent kinase 8 (Homo sapiens) (UniProt P49336); experiment: Binding affinity to CDK8 in human HCT-116 cells assessed as reduction in protease-induced CDK8 degradation at 1 to 4 uM treated for 6 hrs followed by protease treatment for 30 mins by western blot analysis; format: cell-based; details: dose 1-4 µM, time 390.0 min, DDE = dose-dependent effect
[3] = molecular target: T1, Toll-like receptor 7 (Mus musculus) (UniProt P58681); experiment: Inhibition of TLR7 expression in R848-stimulated mouse BMDC cells at 1 to 4 uM treated for 2 hrs followed by R848 stimulation for 12 hrs by western blot analysis; format: cell-based; details: dose 1-4 µM, time 14.0 hrs, DDE = dose-dependent effect
T1 sequence (whole entry): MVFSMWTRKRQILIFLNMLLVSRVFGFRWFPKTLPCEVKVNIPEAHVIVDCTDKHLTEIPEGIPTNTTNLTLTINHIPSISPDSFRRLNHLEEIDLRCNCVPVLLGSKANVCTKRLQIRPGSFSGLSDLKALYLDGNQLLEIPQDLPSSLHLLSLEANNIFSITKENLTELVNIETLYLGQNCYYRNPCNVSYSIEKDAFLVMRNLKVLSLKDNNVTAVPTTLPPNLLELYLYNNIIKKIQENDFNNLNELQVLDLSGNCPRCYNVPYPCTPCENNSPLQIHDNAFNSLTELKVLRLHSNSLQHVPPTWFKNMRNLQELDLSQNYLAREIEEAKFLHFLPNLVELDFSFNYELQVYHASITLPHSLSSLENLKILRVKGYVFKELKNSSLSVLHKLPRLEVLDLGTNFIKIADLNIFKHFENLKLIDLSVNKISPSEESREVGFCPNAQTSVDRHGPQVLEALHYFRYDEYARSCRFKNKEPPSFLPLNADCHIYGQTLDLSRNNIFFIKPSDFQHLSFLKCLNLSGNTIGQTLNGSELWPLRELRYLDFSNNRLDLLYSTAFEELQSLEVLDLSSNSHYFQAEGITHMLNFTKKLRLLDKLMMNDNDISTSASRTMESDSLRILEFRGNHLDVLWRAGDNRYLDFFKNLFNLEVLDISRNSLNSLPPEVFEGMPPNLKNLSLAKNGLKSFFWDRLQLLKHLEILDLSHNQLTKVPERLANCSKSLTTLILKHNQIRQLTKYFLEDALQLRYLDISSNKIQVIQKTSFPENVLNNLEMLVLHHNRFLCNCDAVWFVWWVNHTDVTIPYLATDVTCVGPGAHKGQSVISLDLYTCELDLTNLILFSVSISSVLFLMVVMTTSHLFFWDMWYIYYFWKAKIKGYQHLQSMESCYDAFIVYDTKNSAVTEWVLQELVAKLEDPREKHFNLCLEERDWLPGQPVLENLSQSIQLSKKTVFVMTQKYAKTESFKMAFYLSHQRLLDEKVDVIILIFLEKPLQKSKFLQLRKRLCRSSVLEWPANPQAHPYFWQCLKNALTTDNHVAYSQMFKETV

BMDC [4] = experiment: Inhibition of ERK phosphorylation in R848-stimulated mouse BMDC cells at 1 to 4 uM treated for 2 hrs followed by R848 stimulation for 12 hrs by western blot analysis; format: cell-based; details: dose 1-4 µM, time 14.0 hrs
[5] = Acute toxicity in 12 hr fasted ICR mouse assessed as effect on heart at 2000 mg/kg, po measured after 7 days by hematoxylin and eosin staining based histopathological analysis; format: organism-based; details: in vivo, 168 h, time 7 day
[6] = Half life in Sprague-Dawley rat at 10 mg/kg, po measured for 3 to 1440 mins by HPLC analysis; format: ADME, organism-based; details: in vivo, time 3-1440 min
Mus musculus [7] = experiment: Anti-inflammatory activity in C57BL/6 mouse model of inflammatory bowel disease assessed as reduction in DSS-induced cellular infiltration in colon tissue at 5 to 20 mg/kg, po daily measured after 10 days by hematoxylin and eosin staining based histopathological analysis; format: functional, organism-based; details: dose 5-20 mg/kg, time 10.0 day
Mus musculus [8] = experiment: Anti-inflammatory activity in C57BL/6 mouse model of inflammatory bowel disease assessed as reduction in DSS-induced crypt loss in colon tissue at 5 to 20 mg/kg, po daily measured after 10 days by hematoxylin and eosin staining based histopathological analysis; format: functional, organism-based; details: dose 5-20 mg/kg, time 10.0 day
Mus musculus [9] = experiment: Anti-inflammatory activity in C57BL/6 mouse model of inflammatory bowel disease assessed as suppression of DSS-induced NF-kappa-B p65 expression in colon tissue at 5 to 20 mg/kg, po measured after 10 days by western blot analysis; format: functional, organism-based; details: dose 5-20 mg/kg, time 10.0 day

Cyclin-dependent kinase 8 (Homo sapiens), sequence (P49336 whole entry): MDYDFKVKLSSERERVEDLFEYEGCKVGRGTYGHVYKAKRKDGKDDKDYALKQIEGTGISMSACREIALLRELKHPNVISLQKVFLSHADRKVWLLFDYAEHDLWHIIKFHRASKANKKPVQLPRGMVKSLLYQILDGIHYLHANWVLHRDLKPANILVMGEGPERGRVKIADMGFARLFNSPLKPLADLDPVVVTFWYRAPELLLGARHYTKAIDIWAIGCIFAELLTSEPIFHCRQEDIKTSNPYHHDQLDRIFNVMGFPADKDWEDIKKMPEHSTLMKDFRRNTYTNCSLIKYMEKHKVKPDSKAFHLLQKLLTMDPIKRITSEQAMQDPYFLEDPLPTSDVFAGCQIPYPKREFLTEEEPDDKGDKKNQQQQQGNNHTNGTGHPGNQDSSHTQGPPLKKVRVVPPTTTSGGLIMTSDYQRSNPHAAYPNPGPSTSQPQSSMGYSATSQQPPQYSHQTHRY

In the case of `CCc1ccccc1NC(=O)c1cncc(-c2ccc(C(=O)N3CCNCC3)cc2)c1`, the Activity (BMDC [1]) is reported as 88%, the Activity [2] is reported as “Dde” and the inhibition [3] is reported as “Dde”. The inhibition (BMDC [4]) was “Active”, the Activity [5] was “Non-Toxic” and the half-life [6] was 2.18 h. The Activity (Mus musculus [7]) was “Active”, the Activity (Mus musculus [8]) was “Active” and the Activity (Mus musculus [9]) was “Active”.

Reference: ChEMBL document CHEMBL5154907, “Discovery and Anti-Inflammatory Activity Evaluation of a Novel CDK8 Inhibitor through Upregulation of IL-10 for the Treatment of Inflammatory Bowel Disease In Vivo” (J Med Chem, 2022)
